This is an account of results in patent publication US7795290B2 (Genentech, Inc., priority 2004, dated 2010).

Common to all, as to assay: HTS ATP-utilizing enzyme assay, off-chip mobility-shift (Caliper HTS 250)
Holding throughout (assay type): biochemical
Common to all, as to conditions: kinase named = inhibitory activity/selectivity; test compound 10 μM; active = greater than three-sigma from mean

In test [1] the target is GSK-3-α (Homo sapiens, UniProt P49840). An excerpt: (§1) The following procedures describe the reagent and plate preparation for a HTS of an ATP-utilizing enzyme, such as a protein kinase, run in an off-chip mobility-shift assay format. The following provides an HTS protocol for running a protein kinase HTS screen on a Caliper HTS 250 microfluidics system. The following parameters are dependent on the protein kinase used and can be determined by one skilled in the art as part of a typical assay development process. For example, the peptide substrate used can be identified from the current literature, by screening a peptide library of potential protein kinase substrates, or by other applicable means accepted in the field.
(§2) Assays to determine the kinase inhibitory activity of chemical entities of the present disclosure were performed using a Caliper HTS 250 microfluidics device, Greiner U-bottom assay plates, a Multidrop for transfer of reagents, and Biomek FX (AMNCBM03) software. Initially, 2.4 μL of a 1 mM solution of a test compound in 100% DMSO was added to a well of the Greiner U-bottom plate. A single Greiner U-bottom plate having 24×16 wells could include multiple test compounds. Next, 40 μL of 1.06× Assay Buffer was added to each well of the assay plate. Using the Biomek FX, 10 μL of 0.5 M EDTA was added by the span-8 to wells, indicated as 100% Control and 2.4 μL of 100% DMSO was added by the span-8 to wells, indicated as 0% Control. Using the Multidrop, 10 μL of 2.5× Enzyme Buffer, followed by 10 μL of 2.5× Substrate Buffer was added to each well of the assay plate. The total reaction volume in each well was 25 μL, and the concentration of the test compound was 10 μM. The assay plate was incubated for 2.5 hrs at 20° C. to 22° C. After the incubation period, using the Multidrop, 45 μL of 1.55× Termination Buffer was added to each well of the assay plate to stop the reaction. The inhibition of the ATP-utilizing enzyme, such as a particular protein kinase, was determined by measuring the ratio of the peptide substrate to phosphorylated product for each well of the assay plate using the Caliper HTS 250 system.
(§3) The use of three-sigma statistical limits represents a conservative method for declaring potential hits among targets. The three-sigma activity, as well as the mean population activity, can be different for each target enzyme. This method has an expected false positive rate, from an in-control measurement process, of […].
(§4) Each chemical entity listed in Table 2 was tested for protein kinase inhibitory activity according to the biological assays and definitions of protein kinase inhibitory activity as described herein. For each exemplary compound listed in Table 2, the inhibitory activity for at least one protein kinase according to the biological assays and definitions of protein kinase inhibitory activity as described herein is indicated.

Test [2] addresses T1, AURORA-A (Homo sapiens, UniProt O14965).
T1 sequence (O14965 1-403): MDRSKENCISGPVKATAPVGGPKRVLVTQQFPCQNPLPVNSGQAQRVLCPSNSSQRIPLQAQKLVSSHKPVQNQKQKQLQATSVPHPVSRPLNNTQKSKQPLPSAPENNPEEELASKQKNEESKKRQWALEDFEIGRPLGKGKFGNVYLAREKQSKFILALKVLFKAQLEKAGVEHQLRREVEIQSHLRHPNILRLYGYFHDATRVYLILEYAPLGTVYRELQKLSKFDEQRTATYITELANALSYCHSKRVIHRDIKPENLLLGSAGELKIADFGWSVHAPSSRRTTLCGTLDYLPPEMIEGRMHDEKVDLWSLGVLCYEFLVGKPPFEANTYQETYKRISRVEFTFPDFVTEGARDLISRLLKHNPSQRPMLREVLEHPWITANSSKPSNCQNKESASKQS
Excerpt: as §1, §2, §3, §4

Test [3] concerns the target T2, DYRK2 (Homo sapiens, UniProt Q92630).
T2 sequence (Q92630 1-601): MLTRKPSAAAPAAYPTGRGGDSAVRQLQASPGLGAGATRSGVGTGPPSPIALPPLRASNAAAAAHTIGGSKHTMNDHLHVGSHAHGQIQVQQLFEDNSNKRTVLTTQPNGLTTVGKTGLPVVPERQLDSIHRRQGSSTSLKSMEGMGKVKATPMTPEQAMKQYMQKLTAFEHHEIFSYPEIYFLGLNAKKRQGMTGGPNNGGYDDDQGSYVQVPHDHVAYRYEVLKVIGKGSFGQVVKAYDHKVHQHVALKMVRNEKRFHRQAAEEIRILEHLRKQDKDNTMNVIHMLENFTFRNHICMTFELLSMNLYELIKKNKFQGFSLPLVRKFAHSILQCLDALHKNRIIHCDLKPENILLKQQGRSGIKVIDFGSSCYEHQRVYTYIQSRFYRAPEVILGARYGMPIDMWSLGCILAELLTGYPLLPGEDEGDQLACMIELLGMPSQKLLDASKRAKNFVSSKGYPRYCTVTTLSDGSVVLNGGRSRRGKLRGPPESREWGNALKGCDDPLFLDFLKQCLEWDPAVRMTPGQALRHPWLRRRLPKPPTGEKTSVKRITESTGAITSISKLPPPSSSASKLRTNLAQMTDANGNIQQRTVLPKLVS
Excerpt: as §1, §2, §3, §4

In test [4] the target is KIT (Homo sapiens, UniProt P10721).
Excerpt: as §1, §2, §3, §4

For test [5], the target named is T3, AKT1 (Homo sapiens, UniProt P31749).
T3 construct: purchased Upstate 14-276
Put shortly:
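AKT1 activity was measured by off-chip mobility shift (Caliper HTS 250) as the ratio of peptide substrate to phosphorylated product. Test compound was at 10 μM, with 2.5 h incubation at 20–22° C. EDTA wells served as 100% control and DMSO wells as 0%. Hits were called at three-sigma limits.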

The target in test [6] is T4, ZAP70 (Homo sapiens, UniProt P43403).
T4 sequence (P43403 1-619): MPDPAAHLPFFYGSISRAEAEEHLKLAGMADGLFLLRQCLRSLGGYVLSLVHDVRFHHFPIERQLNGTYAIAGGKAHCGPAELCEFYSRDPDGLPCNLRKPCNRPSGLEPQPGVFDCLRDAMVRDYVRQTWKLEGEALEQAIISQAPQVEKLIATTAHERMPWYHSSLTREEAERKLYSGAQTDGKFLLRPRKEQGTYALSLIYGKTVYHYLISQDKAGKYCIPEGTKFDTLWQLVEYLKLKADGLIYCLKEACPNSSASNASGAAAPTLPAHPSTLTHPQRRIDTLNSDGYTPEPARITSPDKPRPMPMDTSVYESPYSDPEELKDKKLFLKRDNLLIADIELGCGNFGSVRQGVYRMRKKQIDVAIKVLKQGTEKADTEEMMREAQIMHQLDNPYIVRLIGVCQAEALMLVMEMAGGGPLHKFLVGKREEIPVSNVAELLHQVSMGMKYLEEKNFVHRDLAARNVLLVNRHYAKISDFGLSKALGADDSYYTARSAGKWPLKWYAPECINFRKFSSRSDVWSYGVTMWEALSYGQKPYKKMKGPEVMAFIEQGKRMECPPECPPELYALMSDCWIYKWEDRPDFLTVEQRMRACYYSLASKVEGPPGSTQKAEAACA
Excerpt: as §1, §2, §3, §4

T3 sequence (P31749 whole entry): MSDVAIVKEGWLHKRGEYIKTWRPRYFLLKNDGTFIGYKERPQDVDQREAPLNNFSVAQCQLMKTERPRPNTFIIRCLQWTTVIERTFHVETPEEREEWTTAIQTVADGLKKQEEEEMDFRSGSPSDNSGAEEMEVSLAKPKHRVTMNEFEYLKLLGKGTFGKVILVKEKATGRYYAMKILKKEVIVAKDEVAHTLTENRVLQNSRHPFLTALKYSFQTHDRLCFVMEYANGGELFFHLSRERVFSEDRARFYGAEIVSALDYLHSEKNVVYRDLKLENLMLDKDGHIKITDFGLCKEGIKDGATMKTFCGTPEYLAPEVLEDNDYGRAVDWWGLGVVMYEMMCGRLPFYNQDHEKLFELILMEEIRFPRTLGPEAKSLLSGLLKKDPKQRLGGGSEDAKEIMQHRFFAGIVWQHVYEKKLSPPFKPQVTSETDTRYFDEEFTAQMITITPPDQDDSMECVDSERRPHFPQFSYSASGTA
GSK-3-α, sequence (P49840 whole entry): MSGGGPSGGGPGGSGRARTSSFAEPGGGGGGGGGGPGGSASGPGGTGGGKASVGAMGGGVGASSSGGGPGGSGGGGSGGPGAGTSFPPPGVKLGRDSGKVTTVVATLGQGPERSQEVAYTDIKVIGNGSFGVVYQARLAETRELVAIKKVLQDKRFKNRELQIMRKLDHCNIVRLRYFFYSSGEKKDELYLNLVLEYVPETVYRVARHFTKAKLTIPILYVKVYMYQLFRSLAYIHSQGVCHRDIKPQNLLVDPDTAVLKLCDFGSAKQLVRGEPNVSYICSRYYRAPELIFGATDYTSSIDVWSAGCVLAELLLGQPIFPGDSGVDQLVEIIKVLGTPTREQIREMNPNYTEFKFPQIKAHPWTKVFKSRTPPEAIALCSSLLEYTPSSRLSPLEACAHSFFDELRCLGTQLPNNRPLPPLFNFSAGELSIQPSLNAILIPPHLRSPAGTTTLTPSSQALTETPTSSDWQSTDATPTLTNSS
KIT, sequence (P10721 26-976): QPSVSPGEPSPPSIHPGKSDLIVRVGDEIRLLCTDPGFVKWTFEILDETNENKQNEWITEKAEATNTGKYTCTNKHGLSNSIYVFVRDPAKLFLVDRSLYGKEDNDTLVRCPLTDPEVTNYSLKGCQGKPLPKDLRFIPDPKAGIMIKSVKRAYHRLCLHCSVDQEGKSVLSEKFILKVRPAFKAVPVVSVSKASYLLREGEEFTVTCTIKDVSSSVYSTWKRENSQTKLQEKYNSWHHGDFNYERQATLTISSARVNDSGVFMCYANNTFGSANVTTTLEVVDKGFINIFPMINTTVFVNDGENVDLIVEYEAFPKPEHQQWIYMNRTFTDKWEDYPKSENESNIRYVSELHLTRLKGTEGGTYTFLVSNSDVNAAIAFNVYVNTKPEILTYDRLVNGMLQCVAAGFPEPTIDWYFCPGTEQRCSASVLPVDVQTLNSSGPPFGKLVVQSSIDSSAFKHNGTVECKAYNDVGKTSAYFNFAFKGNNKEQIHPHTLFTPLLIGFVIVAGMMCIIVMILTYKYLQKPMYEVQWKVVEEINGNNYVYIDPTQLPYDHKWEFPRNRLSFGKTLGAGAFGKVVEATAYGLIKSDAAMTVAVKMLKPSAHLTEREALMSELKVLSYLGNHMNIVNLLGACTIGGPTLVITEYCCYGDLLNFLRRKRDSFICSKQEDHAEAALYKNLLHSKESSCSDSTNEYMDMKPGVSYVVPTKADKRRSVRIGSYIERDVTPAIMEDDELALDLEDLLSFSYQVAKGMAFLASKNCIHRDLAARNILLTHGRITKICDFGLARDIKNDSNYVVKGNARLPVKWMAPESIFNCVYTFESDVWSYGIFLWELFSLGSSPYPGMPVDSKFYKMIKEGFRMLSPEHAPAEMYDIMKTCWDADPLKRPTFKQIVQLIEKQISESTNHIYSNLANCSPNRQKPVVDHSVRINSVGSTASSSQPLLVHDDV

Consider `COc1ccc(OC)c(-c2csc(N(CCc3ccc(OC)c(OC)c3)C(=O)CCC(=O)O)n2)c1` [4-((3,4-dimethoxyphenethyl)(4-(2,5-dimethoxyphenyl)thiazol-2-yl)amino)-4-oxobutanoic acid], for which, in test [1], the Activity result is “GSK-3-α”.

With `COc1ccc(OC)c(-c2csc(N(Cc3ccco3)C(=O)CCC(=O)O)n2)c1` [4-((4-(2,5-dimethoxyphenyl)thiazol-2-yl)(furan-2-ylmethyl)amino)-4-oxobutanoic acid], the Activity result in test [2] was “AURORA-A”; in test [1] it was “GSK-3-α”.

As for `COc1ccc(OC)c(-c2csc(N(Cc3ccccc3)C(=O)CCC(=O)O)n2)c1` [4-(benzyl(4-(2,5-dimethoxyphenyl)thiazol-2-yl)amino)-4-oxobutanoic acid], the Activity entry in test [2] is reported as “AURORA-A”.

Consider `CCCCN(C(=O)CCC(=O)O)c1nc(-c2cc(OC)ccc2OC)cs1` [4-(butyl(4-(2,5-dimethoxyphenyl)thiazol-2-yl)amino)-4-oxobutanoic acid], for which the Activity entry is recorded as “AURORA-A” in test [2] and “GSK-3-α” in test [1].

As for `COc1ccc(-c2csc(N(CC(C)C)C(=O)CCC(=O)O)n2)cc1` [4-(isobutyl(4-(4-methoxyphenyl)thiazol-2-yl)amino)-4-oxobutanoic acid], the Activity result was “AURORA-A” in test [2] and “DYRK2” in test [3].

For the compound `O=C(c1cccs1)N(CCCN1CCOCC1)c1nc(-c2ccncc2)cs1` [N-(3-morpholinopropyl)-N-(4-(pyridin-4-yl)thiazol-2-yl)thiophene-2-carboxamide], the Activity result in test [4] is on record as “KIT”; in test [5], “AKT1”.

With `CC(=O)N(CCCN1CCOCC1)c1nc(-c2ccccc2)cs1` [N-(3-morpholinopropyl)-N-(4-phenylthiazol-2-yl)acetamide], the Activity entry in test [1] is on record as “GSK-3-α”.

With `COc1ccc(OC)c(-c2csc(N(CCCN(C)C)C(C)=O)n2)c1` [N-(4-(2,5-dimethoxyphenyl)thiazol-2-yl)-N-(3-(dimethylamino)propyl)acetamide], in test [1], the Activity result is recorded as “GSK-3-α”.

For `O=C(c1cccs1)N(CCCN1CCOCC1)c1nc(-c2ccnc(Cl)c2)cs1` [N-(4-(2-chloropyridin-4-yl)thiazol-2-yl)-N-(3-morpholinopropyl)thiophene-2-carboxamide], the values for the Activity entry in test [4] and in test [5] were “KIT” and “AKT1”, respectively.

On to `O=C(c1cccs1)N(CCCN1CCOCC1)c1nc(-c2ccc3c(c2)OCCCO3)cs1` [N-(4-(3,4-dihydro-2H-benzo[b][1,4]dioxepin-7-yl)thiazol-2-yl)-N-(3-morpholinopropyl)thiophene-2-carboxamide], for which the Activity entry is on record as “KIT” in test [4] and “AKT1” in test [5].

Consider `N#Cc1cccc(-c2csc(N(CCCN3CCOCC3)C(=O)c3cccs3)n2)c1` [N-(4-(3-cyanophenyl)thiazol-2-yl)-N-(3-morpholinopropyl)thiophene-2-carboxamide], for which the Activity result in test [4] is “KIT”; in test [1], “GSK-3-α”; in test [5] it was “AKT1”.

Consider `COc1ccc(-c2csc(N(CCCN3CCOCC3)C(=O)c3c(C)noc3C)n2)cc1` [N-(4-(4-methoxyphenyl)thiazol-2-yl)-3,5-dimethyl-N-(3-morpholinopropyl)isoxazole-4-carboxamide], for which the Activity result in test [4] was “KIT”; in test [6] it was “ZAP70”.

For the compound `COc1ccc(-c2csc(N(CCCN3CCOCC3)C(=O)c3ccc(SC)s3)n2)cc1` [N-(4-(4-methoxyphenyl)thiazol-2-yl)-5-(methylthio)-N-(3-morpholinopropyl)thiophene-2-carboxamide], the Activity entry is “KIT” in test [4] and “ZAP70” in test [6].

Turning to `COc1ccc(-c2csc(N(CCCN3CCOCC3)C(=O)c3ccc(C)o3)n2)cc1` [N-(4-(4-methoxyphenyl)thiazol-2-yl)-5-methyl-N-(3-morpholinopropyl)furan-2-carboxamide], the Activity result in test [4] is recorded as “KIT”; in test [5], “AKT1”.

On to `COc1ccc(-c2csc(N(CCCN3CCOCC3)C(=O)COc3ccccc3)n2)cc1` [N-(4-(4-methoxyphenyl)thiazol-2-yl)-N-(3-morpholinopropyl)-2-phenoxyacetamide], for which the Activity entry in test [3] is given as “DYRK2”; in test [1] it was “GSK-3-α”.

`COc1ccc(-c2csc(N(CCCN3CCOCC3)C(=O)c3ccno3)n2)cc1` [N-(4-(4-methoxyphenyl)thiazol-2-yl)-N-(3-morpholinopropyl)isoxazole-5-carboxamide]: the Activity entry in test [2] is “AURORA-A”; in test [5] it was “AKT1”.
